This note sets out measurements from a melting point compilation (Tetko et al.; mined from patent text by program, amines drawn as free bases though some values may be those of a salt).

Molecules are shown by their SMILES. Bounds are passed on as bounds.

As a reminder, the melting point is the temperature of the solid-liquid transition. Molecule `CCOC(=O)C(C(=O)OCC)C(Cc1cc(C(F)(F)F)ccc1N)c1ccccc1Cl` (stereo not drawn) displayed a melting point of 74 to 76 °C.

`Cc1c(Cl)cccc1S(=O)(=O)Nc1ccc2ncccc2c1` had a melting point of 228 °C.

`O=S1NC(CC2=Cc3ccccc3CC2)=NO1` (stereo not drawn): the melting point fell in the range of 118 to 120 °C.

The molecule `CN(C)CCc1nnc2n1-c1ccc(Cl)cc1C(c1ccccc1)NC2` (stereo not drawn) showed a melting point of 131 to 137 °C.

For the molecule `Cc1c(NC(=O)c2ccc(-c3ccc(F)cc3)cc2)ccc2cc(CN(C)C)cnc12`, the melting point fell in the range of 161 to 163 °C.

In turn, `CCCCCCCC[C@H](O)[C@H](O)[C@H]1CCC(=O)O1` yielded a melting point of 117 to 119 °C.

Take `Cc1ccc(C)c(OCCCC(C)(C)C(=O)Nc2c(F)cc(F)cc2F)c1`: the melting point is 82 to 83 °C.

Molecule `CCOC(=O)c1nn(C)c(-c2ccccc2)c1S(N)(=O)=O` registered a melting point of 141 to 144 °C.

On to `CCOC(=O)/C=C/c1ccc(OCCC2OCCO2)cc1Oc1ncc(C(F)(F)F)cc1Cl`, for which the melting point is 102 to 103 °C.

`CCCCCCCCCCC(Cn1ccnc1)SCCCC` (stereo not drawn): the melting point was in the range of 95 to 97 °C.

`CC(Cc1cccnc1)(NC(=O)OC1C2CC3CC(C2)CC1C3)C(=O)NC(CO)Cc1ccccc1` (stereo not drawn) returned a melting point of 63 to 67 °C.

Regarding `O[C@H]1c2cc(Oc3ccc4ccccc4n3)ccc2OC[C@H]1Oc1cccnc1` (relative stereo), the melting point was in the range of 112 to 114 °C.

`CCN1C(=O)C(C)(C)C(=O)N(C)c2cc(OCCCn3cc(-c4ccc(OC)nc4)c(=O)c4ccccc43)ccc21` registered a melting point of 159 to 161 °C.

As to `CC(C)COC(NC(=O)OCc1ccccc1)C(=O)O` (stereo not drawn), the melting point was 66 to 68 °C.

On to `Fc1cc2nc3c(cnn3-c3ccccn3)c(Cl)c2cc1F`, for which the melting point was 167 to 168 °C.

`Cc1cc(Br)cnc1CCCCNC1=NS(=O)(=O)c2cc(S(N)(=O)=O)ccc21` gave a melting point of 219 to 221 °C.

Consider `Cc1ccccc1NC(=O)c1c(Br)cccc1[Si](C)(C)C`, for which the melting point lay in the range of 113 to 115 °C.

As to `CCCOc1cc2c(cc1C=O)C(C)(C)CCC2(C)C`, the melting point was 51 to 52 °C.

For the molecule `CCCCCCNC(=O)C(C)N1CCN(c2ccccn2)CC1` (stereo not drawn), the melting point lay within 131 to 132 °C.

Consider `O=C1C=C(NC(=O)C(=O)c2cn(Cc3c(F)cccc3Cl)c3ccccc23)CO1`, for which the melting point is above 270 °C.

For the molecule `CC(CCCc1ccccc1)Oc1cc(O)c2c(c1)OC(C)(C)CC2=O` (stereo not drawn), the melting point was in the range of 83 to 84 °C.

In turn, `NN(CCCCO)c1nc2ccccc2o1` gave a melting point of 87 to 90 °C.

Consider `CC(O)c1cc(S(N)(=O)=O)ccc1F` (stereo not drawn), for which the melting point was 150 to 152 °C.

The molecule `CS(=O)(=O)Nc1ccc(O)cn1` registered a melting point of 246 to 247 °C.

As for `O=C(Nc1ccc(C(O)(C(F)(F)F)C(F)(F)F)cc1)Oc1ccccc1`, the melting point lay within 192 to 194 °C.

Consider `CCn1cc(C(=O)Nc2nccs2)c2ccc(Cl)cc21`, for which the melting point was 234 to 236 °C.

`CC(COc1ccc(-n2cncn2)cc1)(NS(=O)(=O)Cc1ccccc1)C(N)=O` (stereo not drawn) returned a melting point of 195 to 198 °C.

For the molecule `OCC1OC(n2cnc3c(NCC4(c5cccc(Cl)c5)CCC4)ncnc32)C(O)C1O` (stereo not drawn), the melting point was in the range of 92 to 98 °C.

Take `CC(C)(C(=O)OCC(=O)c1ccccc1)n1c(=O)[nH]c2cc3ccccc3cc2c1=O`: the melting point fell in the range of 184 to 185 °C.

As to `Cc1sc(C=O)c(C)c1C`, the melting point lay in the range of 45 to 46 °C.

`COc1cccc(F)c1-c1ccc(NC(=O)OC(C)(C)C)c([N+](=O)[O-])c1` yielded a melting point of 65 to 68 °C.

The molecule `Nc1ncnc2c1ncn2C1CC(=CF)C(O)C1O` (stereo not drawn) returned a melting point of 167 to 169 °C.

Consider `COc1cc(N)c2nccc(C)c2c1OC`, for which the melting point was in the range of 108 to 110 °C.

Consider `COc1ccc(Cc2ncc(C(=O)O)c3cc(OC)c(OC)cc23)cc1OC`, for which the melting point is 235 to 236 °C.

For `CCOC(=O)c1cccc(C)c1S(N)(=O)=O`, the melting point fell in the range of 93 to 94 °C.

In turn, `CCCOc1ccccc1-c1nc2cc3ncn(Cc4ccccc4)c3cc2c(=O)[nH]1` had a melting point of 218 to 219 °C.

On to `CC(C)C1C(=O)C(c2ccc(S(C)(=O)=O)cc2)=C1c1ccccc1` (stereo not drawn), for which the melting point is 98 °C.

Regarding `CC(C)(Cc1ccccc1)C(NC(=O)c1ccc(Cl)cc1)Nc1c(Nc2cccnc2)c(=O)c1=O` (stereo not drawn), the melting point was in the range of 223 to 224 °C.

For `Cc1ccc(C2CCN(C(=O)Nc3ccc4cc(CN5CCCC5)cnc4c3)CC2)cc1`, the melting point lay in the range of 244 to 246 °C.

As for `COc1cccc(C(=O)C=C(SC)SC)c1`, the melting point lay within 119 to 121 °C.

Consider `COC(=O)n1cc(C)c2c(OCc3ccccc3)c(OC)ccc21`, for which the melting point is 124 °C.

In turn, `CCCc1c(O)ccc2oc(Cc3ccc(OC)cc3)c(C)c12` displayed a melting point of 91 to 93 °C.

In turn, `NCCCCc1ccc(C2=NNC(=O)CC2)cc1` displayed a melting point of 167 to 168 °C.

In turn, `COc1nc(O)cc(=O)n1C` returned a melting point of 170 to 171 °C.

As for `Cc1nccn1CCCNC(=O)c1ccc(Cl)nc1`, the melting point was in the range of 175 to 177 °C.

`Cc1ccc(C2CCN(C(=O)Nc3ccc4nc(CN(C(C)C)C(C)C)ccc4c3)CC2)cc1` gave a melting point of 184 to 186 °C.

Turning to `Nc1cc(Sc2ccc3c(C(=O)O)cccc3c2)ncn1`, the melting point is 264 to 266 °C.

As for `CSc1ccc2ncn(/C=C/C(=O)O)c(=O)c2c1`, the melting point was 271 to 272 °C.

With `CC(C)CC(=O)NCc1ccc(NC(=O)/C=C/c2cnn(C)c2-c2ccc(F)cc2)cc1`, the melting point fell in the range of 226 to 227 °C.

Molecule `COc1ccc(S(=O)(=O)N(CCO)c2cccc(F)c2/C=C/c2ccncc2)cc1` showed a melting point of 152 to 153 °C.

Take `COC(=O)c1ccc(NC(=O)c2cc(C(C)C)c(C(C)C)s2)cc1F`: the melting point fell in the range of 146 to 147 °C.

Take `CC(C)CCCC(C)(C)NC(=O)CN1C(=O)c2ccccc2C1=O`: the melting point lay in the range of 162 to 163 °C.

In turn, `CC(C)(C)c1cc(C(=O)c2ncco2)cc(C(C)(C)C)c1O` gave a melting point of 127 to 130 °C.

Molecule `O=C(O)c1cn([C@@H]2C[C@@H]2F)c2c(F)c(N3C[C@@H]4CCCN[C@@H]4C3)c(F)cc2c1=O` gave a melting point of 271 to 273 °C.

Take `OCCCc1cn(Cc2ccccc2)c2ccccc12`: the melting point stood at 75 °C.

In turn, `CC(C)(OCc1nn(Cc2ccccc2)c2ccc([N+](=O)[O-])cc12)C(=O)O` came in with a melting point of 129 to 131 °C.

For `O=C(CN1CCC(OCc2ccccc2)CC1)Nc1ccc2c(c1)OCC(=O)N2`, the melting point was 238 to 240 °C.

Consider `CS(=O)c1nnc(-c2ccc3occ(-c4cccc(OC(F)(F)F)c4)c3c2)o1` (stereo not drawn), for which the melting point was 98 to 99 °C.

For `Cc1ccccc1C(=O)N1CCC(=O)c2ccc(Cl)cc21`, the melting point fell in the range of 106 to 108 °C.

For the molecule `COc1ccc(CNC(=O)c2cc(C)sc2N)cc1OC`, the melting point stood at 175 °C.

The molecule `O=C(c1ccccc1)C(Br)OCc1ccc(Cl)cc1Cl` (stereo not drawn) yielded a melting point of 89 to 91 °C.

`CC(C)n1nc(-c2c(NC(=N)N)nc(N)nc2-c2ccccc2)ccc1=O` came in with a melting point of 272 to 274 °C.

Turning to `NC(=O)c1ccc(O[C@@H]2CNC[C@H]2O)cc1` (relative stereo), the melting point lay in the range of 202 to 203 °C.

Molecule `Oc1cc(C2CC2)[nH]n1` registered a melting point of 213 to 215 °C.

In turn, `COc1nc(Cl)nc(NC(=O)NS(=O)(=O)c2ccccc2OC(F)F)n1` showed a melting point of 167 to 168 °C.

Take `CCOC(=O)C1=C(C)NC(C)=C(C(=O)OC)C1c1ccc([N+](=O)[O-])cc1` (stereo not drawn): the melting point is 150 °C.

In turn, `CCC1(CCCCCl)C(=O)Nc2ccc(F)cc21` (stereo not drawn) came in with a melting point of 96 to 97 °C.

`COCCOc1ccc(CCCOc2cc(CCC(=O)O)n(C)n2)c(OCc2ccc(Cl)cc2Cl)c1` returned a melting point of 128 to 130 °C.

`CCCOC(=O)c1c(C)nsc1NC(=O)NC` came in with a melting point of 191 °C.

In turn, `Cc1cc(S(C)(=O)=O)ccc1C(=O)c1c(S(C)=O)noc1C1CC1` (stereo not drawn) gave a melting point of 142 °C.

Molecule `CC(C)(C)C(=O)COC(=O)C1(C(=O)OCc2ccccc2)CCCN(C(=O)OCC(Cl)(Cl)Cl)C1` (stereo not drawn) showed a melting point of 114 °C.

For the molecule `CCCc1cc(C)c2oc(Cc3ccc(OC)cc3)c(C)c2c1O`, the melting point lay in the range of 102 to 104 °C.

The molecule `C=CN(C(=O)CCl)c1c(CC)cccc1CC` had a melting point of 45 to 47 °C.

The molecule `CCC(C)(C)c1ccc(OCCCNC(=O)c2cc(OS(=O)(=O)CCCOc3ccc([N+](=O)[O-])cc3)c3ccccc3c2O)c(C(C)(C)CC)c1` came in with a melting point of 140 to 141 °C.

Consider `COc1ccc(-c2cc(SC)sc2-c2ccc(OC)cc2)cc1`, for which the melting point is 106 to 108 °C.

Turning to `COc1cc(OC)c2c(=O)c(OC)c(-c3ccc(O)c(OC)c3)oc2c1`, the melting point was in the range of 221 to 223 °C.

`Fc1cc(CC2(Cc3ccncc3)c3ccccc3Oc3ccccc32)ccn1` registered a melting point of 180 to 181 °C.

As for `CC(C)(C)NC(=O)[C@@H]1C[C@H](Br)CN1C(=O)[C@@H](O)[C@H](Cc1ccccc1)NC(=O)[C@H](CC(N)=O)NC(=O)OCc1ccccc1`, the melting point lay in the range of 100 to 105 °C.

As to `CCOC(=O)c1c(OCC)nsc1NC(=O)Oc1ccccc1`, the melting point is 130 °C.

`COc1nc2ncnn2c(N2CCC(C)CC2)c1-c1ccc(C)cc1F` had a melting point of 201 °C.

Consider `C=CCN1C2CCC1C1CCC2N1C(c1ccc(C(=O)N2CCCCC2)cc1)c1cccc(O)c1` (stereo not drawn), for which the melting point lay within 133 to 135 °C.

The molecule `CC(C)C[C@H](NC(=O)N1CCOCC1)C(=O)N[C@@H](CCc1ccccc1)C(=O)c1oc(-c2ccccc2)nc1-c1ccccc1` had a melting point of 83 to 85 °C.

Consider `O=C1CCC(N2C(=O)c3ccc(CNC(=O)c4ccc(Cl)cc4)cc3C2=O)C(=O)N1` (stereo not drawn), for which the melting point is 178 to 180 °C.

In turn, `O=C(Nc1ccccc1)Nc1ccc(F)c([N+](=O)[O-])c1` displayed a melting point of 200 to 202 °C.

`Cc1cc(SCC#Cc2ccccc2)ccc1OCC(=O)O` showed a melting point of 90 to 92 °C.

`CCOC(=O)C1=C(C)N=C(SCc2ccc(OC)cc2)N(S(=O)(=O)c2ccccc2)C1c1cccc([N+](=O)[O-])c1` (stereo not drawn) showed a melting point of 86 to 88 °C.

Regarding `Cn1c(=O)c2c(ncn2CCN2CCC(c3c[nH]c4ccccc34)CC2)n(C)c1=O`, the melting point stood at 201 °C.

Consider `COc1cc(CCN2CCN(c3nsc4ccccc34)CC2)c([N+](=O)[O-])cc1OC`, for which the melting point was 135 °C.
